According to the NIST ThermoML archive (doi:10.1021/acs.jced.5b00662):
± gives the expanded uncertainty stated by the source.

Experiment: xn = mol fraction of the nth substance listed
Conditions: 283.15 K; 100 kPa; Liquid; Sing-around technique in a fixed-path interferometer; x1 = 0.9886

SMILES | speed of sound
OCCO [1,2-ethanediol] + O | 1690.2 ± 1.3 m/s

Same assay, conditions: 283.15 K; 100 kPa; Liquid; Sing-around technique in a fixed-path interferometer; x1 = 0.9943

SMILES | speed of sound
OCCO [1,2-ethanediol] + O | 1689 ± 1.3 m/s

Same assay, conditions: 283.15 K; 100 kPa; Liquid; Sing-around technique in a fixed-path interferometer; x1 = 0.9959

SMILES | speed of sound
OCCO [1,2-ethanediol] + O | 1690.6 ± 1.3 m/s

Same assay, conditions: 283.15 K; 100 kPa; Liquid; Vibrating tube method; x1 = 0.9886

SMILES | mass density
OCCO [1,2-ethanediol] + O | 1119.9 ± 2 kg/m3

Same assay, conditions: 283.15 K; 100 kPa; Liquid; Vibrating tube method; x1 = 0.9943

SMILES | mass density
OCCO [1,2-ethanediol] + O | 1120.07 ± 2 kg/m3

Same assay, conditions: 283.15 K; 100 kPa; Liquid; Vibrating tube method; x1 = 0.9959

SMILES | mass density
OCCO [1,2-ethanediol] + O | 1120.11 ± 2 kg/m3

Same assay, conditions: 288.15 K; 100 kPa; Liquid; Sing-around technique in a fixed-path interferometer; x1 = 0.9886

SMILES | speed of sound
OCCO [1,2-ethanediol] + O | 1678.4 ± 1.3 m/s

Same assay, conditions: 288.15 K; 100 kPa; Liquid; Sing-around technique in a fixed-path interferometer; x1 = 0.9943

SMILES | speed of sound
OCCO [1,2-ethanediol] + O | 1678.1 ± 1.3 m/s

Same assay, conditions: 288.15 K; 100 kPa; Liquid; Sing-around technique in a fixed-path interferometer; x1 = 0.9959

SMILES | speed of sound
OCCO [1,2-ethanediol] + O | 1678.6 ± 1.3 m/s

Same assay, conditions: 288.15 K; 100 kPa; Liquid; Vibrating tube method; x1 = 0.9886

SMILES | mass density
OCCO [1,2-ethanediol] + O | 1116.43 ± 2 kg/m3

Same assay, conditions: 293.15 K; 100 kPa; Liquid; Sing-around technique in a fixed-path interferometer; x1 = 0.9886

SMILES | speed of sound
OCCO [1,2-ethanediol] + O | 1666.6 ± 1.3 m/s

Same assay, conditions: 293.15 K; 100 kPa; Liquid; Sing-around technique in a fixed-path interferometer; x1 = 0.9943

SMILES | speed of sound
OCCO [1,2-ethanediol] + O | 1666.3 ± 1.3 m/s

Same assay, conditions: 293.15 K; 100 kPa; Liquid; Sing-around technique in a fixed-path interferometer; x1 = 0.9959

SMILES | speed of sound
OCCO [1,2-ethanediol] + O | 1666.6 ± 1.3 m/s

Same assay, conditions: 293.15 K; 100 kPa; Liquid; Vibrating tube method; x1 = 0.9886

SMILES | mass density
OCCO [1,2-ethanediol] + O | 1112.94 ± 2 kg/m3

Same assay, conditions: 293.15 K; 100 kPa; Liquid; Vibrating tube method; x1 = 0.9943

SMILES | mass density
OCCO [1,2-ethanediol] + O | 1113.11 ± 2 kg/m3

Same assay, conditions: 293.15 K; 100 kPa; Liquid; Vibrating tube method; x1 = 0.9959

SMILES | mass density
OCCO [1,2-ethanediol] + O | 1113.15 ± 2 kg/m3

Same assay, conditions: 298.15 K; 100 kPa; Liquid; Sing-around technique in a fixed-path interferometer; x1 = 0.9886

SMILES | speed of sound
OCCO [1,2-ethanediol] + O | 1654.7 ± 1.3 m/s

Same assay, conditions: 298.15 K; 100 kPa; Liquid; Sing-around technique in a fixed-path interferometer; x1 = 0.9943

SMILES | speed of sound
OCCO [1,2-ethanediol] + O | 1654.8 ± 1.3 m/s

Same assay, conditions: 298.15 K; 100 kPa; Liquid; Sing-around technique in a fixed-path interferometer; x1 = 0.9959

SMILES | speed of sound
OCCO [1,2-ethanediol] + O | 1654.6 ± 1.3 m/s

Same assay, conditions: 298.15 K; 100 kPa; Liquid; Vibrating tube method; x1 = 0.9886

SMILES | mass density
OCCO [1,2-ethanediol] + O | 1109.46 ± 2 kg/m3

Same assay, conditions: 303.15 K; 100 kPa; Liquid; Sing-around technique in a fixed-path interferometer; x1 = 0.9886

SMILES | speed of sound
OCCO [1,2-ethanediol] + O | 1643 ± 1.3 m/s

Same assay, conditions: 303.15 K; 100 kPa; Liquid; Sing-around technique in a fixed-path interferometer; x1 = 0.9943

SMILES | speed of sound
OCCO [1,2-ethanediol] + O | 1643 ± 1.3 m/s

Same assay, conditions: 303.15 K; 100 kPa; Liquid; Sing-around technique in a fixed-path interferometer; x1 = 0.9959

SMILES | speed of sound
OCCO [1,2-ethanediol] + O | 1642.7 ± 1.3 m/s

Same assay, conditions: 303.15 K; 100 kPa; Liquid; Vibrating tube method; x1 = 0.9886

SMILES | mass density
OCCO [1,2-ethanediol] + O | 1105.95 ± 2 kg/m3

Same assay, conditions: 303.15 K; 100 kPa; Liquid; Vibrating tube method; x1 = 0.9943

SMILES | mass density
OCCO [1,2-ethanediol] + O | 1106.11 ± 2 kg/m3

Same assay, conditions: 303.15 K; 100 kPa; Liquid; Vibrating tube method; x1 = 0.9959

SMILES | mass density
OCCO [1,2-ethanediol] + O | 1106.15 ± 2 kg/m3

Same assay, conditions: 308.15 K; 100 kPa; Liquid; Sing-around technique in a fixed-path interferometer; x1 = 0.9886

SMILES | speed of sound
OCCO [1,2-ethanediol] + O | 1631.2 ± 1.3 m/s

Same assay, conditions: 308.15 K; 100 kPa; Liquid; Sing-around technique in a fixed-path interferometer; x1 = 0.9943

SMILES | speed of sound
OCCO [1,2-ethanediol] + O | 1631.3 ± 1.3 m/s

Same assay, conditions: 308.15 K; 100 kPa; Liquid; Sing-around technique in a fixed-path interferometer; x1 = 0.9959

SMILES | speed of sound
OCCO [1,2-ethanediol] + O | 1630.9 ± 1.3 m/s

Same assay, conditions: 308.15 K; 100 kPa; Liquid; Vibrating tube method; x1 = 0.9886

SMILES | mass density
OCCO [1,2-ethanediol] + O | 1102.43 ± 2 kg/m3

Same assay, conditions: 313.15 K; 100 kPa; Liquid; Sing-around technique in a fixed-path interferometer; x1 = 0.9886

SMILES | speed of sound
OCCO [1,2-ethanediol] + O | 1619.5 ± 1.3 m/s

Same assay, conditions: 313.15 K; 100 kPa; Liquid; Sing-around technique in a fixed-path interferometer; x1 = 0.9943

SMILES | speed of sound
OCCO [1,2-ethanediol] + O | 1619.4 ± 1.3 m/s

Same assay, conditions: 313.15 K; 100 kPa; Liquid; Sing-around technique in a fixed-path interferometer; x1 = 0.9959

SMILES | speed of sound
OCCO [1,2-ethanediol] + O | 1619.1 ± 1.3 m/s

Same assay, conditions: 313.15 K; 100 kPa; Liquid; Vibrating tube method; x1 = 0.9886

SMILES | mass density
OCCO [1,2-ethanediol] + O | 1098.89 ± 2 kg/m3

Same assay, conditions: 313.15 K; 100 kPa; Liquid; Vibrating tube method; x1 = 0.9943

SMILES | mass density
OCCO [1,2-ethanediol] + O | 1099.05 ± 2 kg/m3

Same assay, conditions: 313.15 K; 100 kPa; Liquid; Vibrating tube method; x1 = 0.9959

SMILES | mass density
OCCO [1,2-ethanediol] + O | 1099.1 ± 2 kg/m3

Same assay, conditions: 323.15 K; 100 kPa; Liquid; Sing-around technique in a fixed-path interferometer; x1 = 0.9886

SMILES | speed of sound
OCCO [1,2-ethanediol] + O | 1595.7 ± 1.3 m/s

Same assay, conditions: 323.15 K; 100 kPa; Liquid; Sing-around technique in a fixed-path interferometer; x1 = 0.9943

SMILES | speed of sound
OCCO [1,2-ethanediol] + O | 1595.5 ± 1.3 m/s

Same assay, conditions: 323.15 K; 100 kPa; Liquid; Sing-around technique in a fixed-path interferometer; x1 = 0.9959

SMILES | speed of sound
OCCO [1,2-ethanediol] + O | 1595.2 ± 1.3 m/s

Same assay, conditions: 323.15 K; 100 kPa; Liquid; Vibrating tube method; x1 = 0.9886

SMILES | mass density
OCCO [1,2-ethanediol] + O | 1091.75 ± 2 kg/m3

Same assay, conditions: 323.15 K; 100 kPa; Liquid; Vibrating tube method; x1 = 0.9943

SMILES | mass density
OCCO [1,2-ethanediol] + O | 1091.9 ± 2 kg/m3

Same assay, conditions: 323.15 K; 100 kPa; Liquid; Vibrating tube method; x1 = 0.9959

SMILES | mass density
OCCO [1,2-ethanediol] + O | 1091.95 ± 2 kg/m3

Same assay, conditions: 333.15 K; 100 kPa; Liquid; Sing-around technique in a fixed-path interferometer; x1 = 0.9886

SMILES | speed of sound
OCCO [1,2-ethanediol] + O | 1571.7 ± 1.3 m/s

Same assay, conditions: 333.15 K; 100 kPa; Liquid; Sing-around technique in a fixed-path interferometer; x1 = 0.9943

SMILES | speed of sound
OCCO [1,2-ethanediol] + O | 1571.5 ± 1.3 m/s

Same assay, conditions: 333.15 K; 100 kPa; Liquid; Sing-around technique in a fixed-path interferometer; x1 = 0.9959

SMILES | speed of sound
OCCO [1,2-ethanediol] + O | 1571.2 ± 1.3 m/s

Same assay, conditions: 333.15 K; 100 kPa; Liquid; Vibrating tube method; x1 = 0.9886

SMILES | mass density
OCCO [1,2-ethanediol] + O | 1084.51 ± 2 kg/m3

Same assay, conditions: 333.15 K; 100 kPa; Liquid; Vibrating tube method; x1 = 0.9943

SMILES | mass density
OCCO [1,2-ethanediol] + O | 1084.67 ± 2 kg/m3

Same assay, conditions: 333.15 K; 100 kPa; Liquid; Vibrating tube method; x1 = 0.9959

SMILES | mass density
OCCO [1,2-ethanediol] + O | 1084.72 ± 2 kg/m3

Same assay, conditions: 343.15 K; 100 kPa; Liquid; Sing-around technique in a fixed-path interferometer; x1 = 0.9886

SMILES | speed of sound
OCCO [1,2-ethanediol] + O | 1547.6 ± 1.3 m/s

Same assay, conditions: 343.15 K; 100 kPa; Liquid; Sing-around technique in a fixed-path interferometer; x1 = 0.9943

SMILES | speed of sound
OCCO [1,2-ethanediol] + O | 1547.4 ± 1.3 m/s

Same assay, conditions: 343.15 K; 100 kPa; Liquid; Sing-around technique in a fixed-path interferometer; x1 = 0.9959

SMILES | speed of sound
OCCO [1,2-ethanediol] + O | 1547.1 ± 1.3 m/s

Same assay, conditions: 343.15 K; 100 kPa; Liquid; Vibrating tube method; x1 = 0.9886

SMILES | mass density
OCCO [1,2-ethanediol] + O | 1077.16 ± 2 kg/m3

Same assay, conditions: 343.15 K; 100 kPa; Liquid; Vibrating tube method; x1 = 0.9943

SMILES | mass density
OCCO [1,2-ethanediol] + O | 1077.33 ± 2 kg/m3

Same assay, conditions: 343.15 K; 100 kPa; Liquid; Vibrating tube method; x1 = 0.9959

SMILES | mass density
OCCO [1,2-ethanediol] + O | 1077.37 ± 2 kg/m3
